Results from patent US20230404887A1, “COMPOSITIONS TO LIMIT OR ELIMINATE THE PERCEPTION OF SWEAT MALODOR” (Firmenich SA, priority 2020, published 2023).

Experiments:
[1] = Expert perfumer evaluation of malodor reduction, dynamic olfactometer, against 3M2HA; set-up: species or system human; conditions: for EFFECTIVE CONCENTRATION: MO 3M2HA held fixed at mid-intensity (0.5), headspace concentration providing an effective level; for EXPERT RATING: MO 3M2HA held fixed at mid-intensity (0.5 on scale 0-1), rating of degree of malodor reduction at the effective concentration
Description: (§1) The effectiveness of perfuming materials in compositions to reduce the perception of, for example, axillary sweat malodors, was evaluated by an expert perfumer by 1) selecting target axillary malodor components, 2) delivering target malodor components and candidate malodor reducing materials to the nose of an expert perfumer at carefully controlled concentrations, 3) having the expert perfumer identify the concentration at which malodor reduction was obtained, and 4) rating the degree of reduction achieved at the concentration identified in step 3.
(§2) In this method, a dynamic multi-channel olfactometer was used to precisely deliver known gas phase concentrations of the test materials, using forced evaporation, into a stream of air emanating from a smelling port. The appropriate concentration of the malodor component was established prior to its being mixed with the candidate malodor reducing substance. The concentration was set at a concentration sufficient to produce an intensity of 0.5 (mid-intensity) on a scale of 0-1. The expert perfumer then dynamically adjusted the concentration of the candidate malodor reducing substance to determine the effective concentration, while maintaining a fixed concentration of the malodor component. Once the appropriate concentration had been determined, the expert perfumer evaluated the perception of the mixtures repeatedly over a period of several minutes, taking breaks in between sniffs to avoid adaptation to the components being tested, before providing a rating.
(§3) Tests were performed in a forced-evaporation, dynamic olfactometer, with malodor component concentrations held fixed at a mid-intensity. Ratings of effectiveness were based in the following scale: −2 (significant increase in malodor), −1 (slight increase in malodor), 0 (no effect), 1 (slight malodor reduction), 2 (good malodor reduction), 3 (complete malodor reduction). The malodor (MO) component abbreviations are 3H3MHA (3-methyl-3-hydroxyhexanoic acid), 3M2HA (3-methyl-2-hexenoic acid), 3M3SH (3-methyl-3-sulphanylhexanol).

[2] = Expert perfumer evaluation of malodor reduction, dynamic olfactometer, against 3M3SH; set-up: species or system human; conditions: for EFFECTIVE CONCENTRATION: MO 3M3SH held fixed at mid-intensity (0.5), headspace concentration providing an effective level; for EXPERT RATING: MO 3M3SH held fixed at mid-intensity (0.5 on scale 0-1), rating of degree of malodor reduction at the effective concentration
Description: as §1, §2, §3

C=CCOC(=O)CCCCCC [ALLYL HEPTANOATE]
EFFECTIVE CONCENTRATION [1]: 4.13E+00 micrograms/L AIR
EXPERT RATING [1]: 3

CC/C=C(\C)C(O)CCCCC (racemic) [(+−)-(E)-4-METHYL-3-DECEN-5-OL]
EFFECTIVE CONCENTRATION [1]: 2.13E−01 micrograms/L AIR
EXPERT RATING [1]: 3
EFFECTIVE CONCENTRATION [2]: 4.27E−01 micrograms/L AIR
EXPERT RATING [2]: 3

CCCCCOC(=O)c1ccccc1O [PENTYL 2-HYDROXYBENZOATE]
EFFECTIVE CONCENTRATION [2]: 5.00E−01 micrograms/L AIR
EXPERT RATING [2]: 3

COC(=O)c1c(C)cc(O)c(C)c1O [METHYL 2,4-DIHYDROXY-3,6-DIMETHYLBENZOATE]
EFFECTIVE CONCENTRATION [1]: 3.50E−03 micrograms/L AIR
EXPERT RATING [1]: 3
EFFECTIVE CONCENTRATION [2]: 3.50E−03 micrograms/L AIR
EXPERT RATING [2]: 3

COc1ccc(COC(C)=O)cc1 [4-METHOXYBENZYL ACETATE]
EFFECTIVE CONCENTRATION [1]: 1.18E+00 micrograms/L AIR
EXPERT RATING [1]: 3
EFFECTIVE CONCENTRATION [2]: 2.37E+00 micrograms/L AIR
EXPERT RATING [2]: 2

CCCCCCCC=O [OCTANAL]
EFFECTIVE CONCENTRATION [1]: 6.17E−01 micrograms/L AIR
EXPERT RATING [1]: 3
EFFECTIVE CONCENTRATION [2]: 3.08E−01 micrograms/L AIR
EXPERT RATING [2]: 2

C[C@H]1CCO[C@@H](c2ccccc2)C1 (racemic) [(2RS,4SR)-4-METHYL-2-PHENYLTETRAHYDRO-2H-PYRAN]
EFFECTIVE CONCENTRATION [2]: 2.67E−01 micrograms/L AIR
EXPERT RATING [2]: 3

CC(=O)CCc1ccccc1 [4-PHENYL-2-BUTANONE]
EFFECTIVE CONCENTRATION [1]: 7.50E−01 micrograms/L AIR
EXPERT RATING [1]: 3
EFFECTIVE CONCENTRATION [2]: 3.75E−01 micrograms/L AIR
EXPERT RATING [2]: 2

CC(=O)OC(C)(C)C1CC=C(C)CC1 (racemic) [(+−)-2-(4-METHYL-3-CYCLOHEXEN-1-YL)-2-PROPANYL ACETATE]
EFFECTIVE CONCENTRATION [1]: 1.08E+00 micrograms/L AIR
EXPERT RATING [1]: 3
EFFECTIVE CONCENTRATION [2]: 1.08E+00 micrograms/L AIR
EXPERT RATING [2]: 3

C=CC(C)CCCC(C)(C)O (racemic)
EFFECTIVE CONCENTRATION [1]: 4.33E+00 micrograms/L AIR
EXPERT RATING [1]: 2

OCCc1ccccc1 [2-PHENYLETHANOL]
EFFECTIVE CONCENTRATION [1]: 5.42E−01 micrograms/L AIR
EXPERT RATING [1]: 3
EFFECTIVE CONCENTRATION [2]: 1.08E+00 micrograms/L AIR
EXPERT RATING [2]: 2

CCC(C)(O)CCCC(C)C (racemic)
EFFECTIVE CONCENTRATION [1]: 9.27E+00 micrograms/L AIR
EXPERT RATING [1]: 2

CCOC(=O)/C=C/c1ccccc1 [ETHYL (E)-3-PHENYL-2-PROPENOATE]
EFFECTIVE CONCENTRATION [1]: 7.33E−02 micrograms/L AIR
EXPERT RATING [1]: 2
EFFECTIVE CONCENTRATION [2]: 3.67E−02 micrograms/L AIR
EXPERT RATING [2]: 2

CCCCCCCCCC=O [DECANAL]
EFFECTIVE CONCENTRATION [1]: 5.00E−01 micrograms/L AIR
EXPERT RATING [1]: 3
EFFECTIVE CONCENTRATION [2]: 2.50E−01 micrograms/L AIR
EXPERT RATING [2]: 2

COC(Cc1ccccc1)OC [(2,2-DIMETHOXYETHYL)BENZENE]
EFFECTIVE CONCENTRATION [1]: 3.92E+00 micrograms/L AIR
EXPERT RATING [1]: 3
EFFECTIVE CONCENTRATION [2]: 3.92E+00 micrograms/L AIR
EXPERT RATING [2]: 2

COc1ccc2ccccc2c1 [2-METHOXYNAPHTHALENE]
EFFECTIVE CONCENTRATION [1]: 1.25E−02 micrograms/L AIR
EXPERT RATING [1]: 3
EFFECTIVE CONCENTRATION [2]: 5.00E−02 micrograms/L AIR
EXPERT RATING [2]: 3

CC1(C)CCC[C@]2(C)[C@H]3CCO[C@]3(C)CC[C@@H]12 (racemic) [(3aRS,5aSR,9aSR,9bRS)-3a,6,6,9a-TETRAMETHYLDODECAHYDRONAPHTHO[2,1-b]FURAN]
EFFECTIVE CONCENTRATION [1]: 4.33E−03 micrograms/L AIR
EXPERT RATING [1]: 3
EFFECTIVE CONCENTRATION [2]: 2.17E−03 micrograms/L AIR
EXPERT RATING [2]: 3

CCCCCC1(C)CCC(C)(C)C1=O (racemic)
EFFECTIVE CONCENTRATION [1]: 1.22E+00 micrograms/L AIR
EXPERT RATING [1]: 2

COc1ccc(C=O)cc1 [4-METHOXYBENZALDEHYDE]
EFFECTIVE CONCENTRATION [1]: 6.83E−02 micrograms/L AIR
EXPERT RATING [1]: 2

CC(C)=C[C@H]1C[C@@H](C)CCO1 (racemic) [(2RS,4SR)-4-METHYL-2-(2-METHYL-1-PROPEN-1-YL)TETRAHYDRO-2H-PYRAN]
EFFECTIVE CONCENTRATION [1]: 6.83E−01 micrograms/L AIR
EXPERT RATING [1]: 2
EFFECTIVE CONCENTRATION [2]: 6.83E−01 micrograms/L AIR
EXPERT RATING [2]: 1

CCc1occc(=O)c1O [2-ETHYL-3-HYDROXY-4(4H)-PYRANONE]
EFFECTIVE CONCENTRATION [1]: 1.83E−02 micrograms/L AIR
EXPERT RATING [1]: 3
EFFECTIVE CONCENTRATION [2]: 1.83E−02 micrograms/L AIR
EXPERT RATING [2]: 2

CCCCCCC/C=C\CCC=O [(4Z)-4-DODECENAL]
EFFECTIVE CONCENTRATION [1]: 1.03E−04 micrograms/L AIR
EXPERT RATING [1]: 2
EFFECTIVE CONCENTRATION [2]: 2.07E−04 micrograms/L AIR
EXPERT RATING [2]: 1

CC1C/C=C/CCCCCCCCCC(=O)C1 (racemic) [(+−)-(5E)-3-METHYL-5-CYCLOPENTADECEN-1-ONE]
EFFECTIVE CONCENTRATION [1]: 2.33E−01 micrograms/L AIR
EXPERT RATING [1]: 2
EFFECTIVE CONCENTRATION [2]: 5.83E−01 micrograms/L AIR
EXPERT RATING [2]: 1

C=CCOC(=O)CCCCC [ALLYL HEXANOATE]
EFFECTIVE CONCENTRATION [1]: 1.06E+00 micrograms/L AIR
EXPERT RATING [1]: 3
EFFECTIVE CONCENTRATION [2]: 2.12E+00 micrograms/L AIR
EXPERT RATING [2]: 3

TRICYCLO[5.2.1.0(2,6)]DEC-3/4-EN-8-YL PROPANOATE
EFFECTIVE CONCENTRATION [1]: 7.08E−02 micrograms/L AIR
EXPERT RATING [1]: 3
EFFECTIVE CONCENTRATION [2]: 1.42E−01 micrograms/L AIR
EXPERT RATING [2]: 2

CCCCCCCCCCC=O [UNDECANAL]
EFFECTIVE CONCENTRATION [1]: 5.42E−02 micrograms/L AIR
EXPERT RATING [1]: 3
EFFECTIVE CONCENTRATION [2]: 2.17E−01 micrograms/L AIR
EXPERT RATING [2]: 3

O=c1ccc2ccccc2o1 [2-CHROMENONE]
EFFECTIVE CONCENTRATION [1]: 9.83E−03 micrograms/L AIR
EXPERT RATING [1]: 3
EFFECTIVE CONCENTRATION [2]: 7.87E−02 micrograms/L AIR
EXPERT RATING [2]: 3

CCC(C)CCCC(C)(C)O (racemic)
EFFECTIVE CONCENTRATION [1]: 5.40E+00 micrograms/L AIR
EXPERT RATING [1]: 2
EFFECTIVE CONCENTRATION [2]: 1.08E+01 micrograms/L AIR
EXPERT RATING [2]: 2

CCOC(=O)CC1(C)OCCO1 [ETHYL 2-METHYL-1,3-DIOXOLANE-2-ACETATE]
EFFECTIVE CONCENTRATION [1]: 7.07E+00 micrograms/L AIR
EXPERT RATING [1]: 2

3-(2/4-ETHYLPHENYL)-2,2-DIMETHYLPROPANAL
EFFECTIVE CONCENTRATION [1]: 3.67E−01 micrograms/L AIR
EXPERT RATING [1]: 3
EFFECTIVE CONCENTRATION [2]: 7.33E−01 micrograms/L AIR
EXPERT RATING [2]: 2

OC/C=C/c1ccccc1 [(2E)-3-PHENYL-2-PROPEN-1-OL]
EFFECTIVE CONCENTRATION [2]: 6.50E−02 micrograms/L AIR
EXPERT RATING [2]: 2

CCC(C)c1ccc2ncccc2c1 (racemic) [(+−)-6-SEC-BUTYLQUINOLINE]
EFFECTIVE CONCENTRATION [2]: 1.83E−02 micrograms/L AIR
EXPERT RATING [2]: 3

C=CC(C)(CC/C=C(\C)CC)OC(C)=O (racemic) [(+−)-(6E)-3,7-dimethyl-1,6-nonadien-3-yl acetate]
EFFECTIVE CONCENTRATION [2]: 6.67E+00 micrograms/L AIR
EXPERT RATING [2]: 2

CCCCCCCCCC(C)C=O (racemic) [(+−)-2-METHYLUNDECANAL]
EFFECTIVE CONCENTRATION [1]: 2.33E−03 micrograms/L AIR
EXPERT RATING [1]: 2
